Each block holds one compound with its values, some of them ahead of it.
Tests used:
A1 receptors [1] = molecular target: T1, A1 receptors (Rattus norvegicus, UniProt P25099); assay: Binding on A1 receptors, rat brain synaptosomial membranes, [3H]-DPCPX; details: 0.3 nM [3H]-DPCPX, 1 h, 25° C., pH 7.4
T1 construct: preparations of synaptosomial membranes from rat brain; from tissue; host or cells: rat brain synaptosomal membranes
T1 sequence (P25099 1-326): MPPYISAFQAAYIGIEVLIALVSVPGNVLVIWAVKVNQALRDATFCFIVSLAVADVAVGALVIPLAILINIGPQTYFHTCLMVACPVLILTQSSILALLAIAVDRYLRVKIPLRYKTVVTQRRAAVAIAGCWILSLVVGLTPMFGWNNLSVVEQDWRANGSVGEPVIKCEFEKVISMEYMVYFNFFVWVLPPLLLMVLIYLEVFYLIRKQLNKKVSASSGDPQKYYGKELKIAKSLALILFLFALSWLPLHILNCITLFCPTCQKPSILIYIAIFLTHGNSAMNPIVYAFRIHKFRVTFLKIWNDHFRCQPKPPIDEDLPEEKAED
Protocol: (§1) Binding on the adenosine receptors.
The binding on A1 receptors has been carried out according to the method described in Naunyn-Schmied. Arch. Pharmacol. 1987, 336, 204 on preparations of synaptosomial membranes from rat brain by incubating 200 μg of membrane proteins for 1 h at 25° C. with the substance to be tested and 0.3 nM [^3 H]-DPCPX in 400 μl of 50 mM Tris.HCl pH=7.4. The non-specific binding has been determined with […].
(§2) The incubations were blocked by filtration by means of a cell-harvester and, after completion of the separation of the bound from the free, the radioactivity contents were evaluated by liquid scintillation. The concentration-inhibition curves were obtained by assaying the receptor displacement at at least ten different concentrations of the test substance (all the assays were carried out in triplicate). The tested substances were dissolved in dimethyl sulphoxide and diluted in 50 mM Tris.HCl buffer pH=7.4. The IC50 values have been determined by non-linear regression curves and transformed into Ki values according to the Cheng-Prusoff equation.

adenosine receptors = details: cited from earlier work
A1 receptors [2] = molecular target: T2, A1 receptors (Rattus norvegicus, UniProt P30543); assay: Binding on receptors (printed A1) of rat striatal membranes, [3H]-CGS21680 + CPA; details: 5 nM [3H]-CGS21680, 50 nM CPA, 1 h, 25° C.
T2 construct: preparations of rat striatal membranes; from tissue; host or cells: rat striatal membranes
T2 sequence (P30543 whole entry): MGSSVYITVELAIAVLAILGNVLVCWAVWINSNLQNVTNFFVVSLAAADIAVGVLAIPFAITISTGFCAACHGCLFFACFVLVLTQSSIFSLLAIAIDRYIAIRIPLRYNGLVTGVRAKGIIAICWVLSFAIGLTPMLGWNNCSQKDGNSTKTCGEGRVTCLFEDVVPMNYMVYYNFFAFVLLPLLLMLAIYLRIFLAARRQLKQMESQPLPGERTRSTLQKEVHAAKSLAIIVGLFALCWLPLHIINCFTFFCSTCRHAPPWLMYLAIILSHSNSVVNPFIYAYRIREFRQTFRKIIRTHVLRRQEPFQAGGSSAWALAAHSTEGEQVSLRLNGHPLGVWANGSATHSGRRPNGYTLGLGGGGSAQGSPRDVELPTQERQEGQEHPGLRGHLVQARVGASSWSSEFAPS
Protocol: as §1
The binding on […] receptors has been carried out according to the method described in FASEB J. 1989, 3, A1047 on preparations of rat striatal membranes by incubating 200 μg of membrane proteins for 1 h at 25° C. with the substance to be tested, 5 nM [^3 H]-CGS21680 and 50 nM CPA. The non-specific binding has been determined with 100 nM CPA.
as §2

Forced swim test = format: in vivo, Male ablino CD 1 mice; details: 1 h before immersion
Protocol: Forced swim test The test described by R. D. Porsolt et al. in Arch.Int.Pharmacodyn.Ther. 1977, 229, 327, has been carried out which is widely used as an animal model for the study of the antidepressant activity of new drugs. Male ablino CD 1 mice weighing 25-35 g were used. One hour before immersion in water, the test compound is intraperitoneally (i.p.) administered to the animal; the vehicle is administered to the control animals. The duration of permanence in water is 6'; from the 2nd to the 6th minute the time is measured during which the animal remains motionless. […] As the reference substance the tricyclic antidepressant drug desipramine was used.

Tail suspension test = format: in vivo, Male albino CD 1 mice; details: half an hour before test
Protocol: Tail suspension test The test described by L. Steru, et al. in Psychopharmacology 1985, 85, 367, also widely used as an animal model for the screening of antidepressant activity has been carried out. Male albino CD 1 mice weighing 25-35 g were used. Half an hour before the test, the animal is administered the test compound by the i.p. route; the control animals are administered the vehicle. The mouse is suspended from a horizontal bar at about 40 cm from the support plane by means of an adhesive tape applied at the end of the tail and secured to a hook. […] As the reference substance the tricyclic antidepressant drug desipramine was used.

- Ki (A1 receptors [1]): 54 nM
SMILES: CCC(CC)Nc1nc2ccccc2n2c(C)cnc12 [COMPOUND EX. 5, 4-(1-ethylpropylamino)-1-methylimidazo[1,2-a] quinoxaline]

SMILES: Cn1c(=O)c2c(ncn2C)n(C)c1=O [caffeine, 1,3,7-trimethylxanthine]
- affinity to the adenosine receptors (adenosine receptors): low affinity

- Ki (A1 receptors [1]): 7.9 nM
- Ki (A1 receptors [2]): 2500 nM
SMILES: Cc1cnc2c(NC3CCCC3)nc3ccccc3n12 [COMPOUND EX. 9, 4-cyclopentylamino-1-methyl imidazo [1,2-a]quinoxaline]
- % variation immobility time vs. C. (Forced swim test; 0.001 mg/kg i.p.): -32.8%
- % variation immobility time vs. C. (Forced swim test; 0.01 mg/kg i.p.): -45.3%
- % variation immobility time vs. C. (Tail suspension test; 0.001 mg/kg i.p.): -26.7%
- % variation immobility time vs. C. (Tail suspension test; 0.01 mg/kg i.p.): -41.1%
- % variation immobility time vs. C. (Tail suspension test; 0.1 mg/kg i.p.): -64.3%

SMILES: Cc1cnc2c(NC3CCCCC3)nc3ccc(Cl)cc3n12 [COMPOUND EX. 21, 4-cyclohexylamino-8-chloro-1-methylimidazo[1,2-a]quinoxaline]
- % variation immobility time vs. C. (Forced swim test; 0.001 mg/kg i.p.): -33.0%
- % variation immobility time vs. C. (Forced swim test; 0.01 mg/kg i.p.): -48.6%

SMILES: Cn1c(=O)c2[nH]cnc2n(C)c1=O [theophylline, 1,3-dimethylxanthine]
- affinity to the adenosine receptors (adenosine receptors): low affinity

SMILES: CNCCCN1c2ccccc2CCc2ccccc21 [DESIPRAMINE, reference compound]
- % variation immobility time vs. C. (Forced swim test; 7.5 mg/kg i.p.): -10.4%
- % variation immobility time vs. C. (Forced swim test; 30 mg/kg i.p.): -41.4%
- % variation immobility time vs. C. (Tail suspension test; 4 mg/kg i.p.): -21.3%
- % variation immobility time vs. C. (Tail suspension test; 16 mg/kg i.p.): -62.4%

- Ki (A1 receptors [1]): 23.5 nM
SMILES: Clc1ccc2nc(NC3CCCC3)c3nccn3c2c1 [COMPOUND EX. 18, 4-cyclopentylamino-8-chloroimidazo[1,2-a]quinoxaline]
- % variation immobility time vs. C. (Forced swim test; 1 mg/kg i.p.): -42.3%
- % variation immobility time vs. C. (Forced swim test; 10 mg/kg i.p.): -52.8%

- Ki (A1 receptors [1]): 84 nM
SMILES: Fc1ccc2nc(NC3CCCC3)c3nccn3c2c1 [COMPOUND EX. 25]

- Ki (A1 receptors [1]): 26.5 nM
SMILES: Clc1cc2nc(NC3CCCC3)c3nccn3c2cc1Cl [COMPOUND EX. 22, 4-cyclopentylamino-7,8-dichloroimidazo[1,2-a]quinoxaline]

SMILES: Cc1cnc2c(N3CCN(C)CC3)nc3ccccc3n12 [COMPOUND EX. 16, 1-methyl-4(N'-methylpiperazinyl)imidazo[1,2-a]quinoxaline]
- % variation immobility time vs. C. (Forced swim test; 0.1 mg/kg i.p.): -22.4%
- % variation immobility time vs. C. (Forced swim test; 1 mg/kg i.p.): -51.4%

SMILES: Cc1cnc2c(N3CCCCC3)nc3ccccc3n12 [COMPOUND EX. 13, 1-methyl-4-piperidinylimidazo[1,2-a]quinoxaline]
- % variation immobility time vs. C. (Forced swim test; 0.1 mg/kg i.p.): -23.5%
- % variation immobility time vs. C. (Forced swim test; 1 mg/kg i.p.): -70.7%
